Test results published in PMC5352234 (International Journal of Nanomedicine, 2017).
Where two headings read alike, the source gives them in different places.

What was measured:
PKA [1] = biological target: T1, PKA (Bos taurus, UniProt P00517); details: cited from earlier work
PKA [2] = biological target: T1, PKA; test: AuNPs/Fc-peptide electrochemical; details: thiolated IP20/MCH gold electrode; Fc-peptide 4 µM or AuNPs 2.4 nM
[3] = Aggregation of unmodified AuNPs by peptide; assay type: physicochemical; details: AuNPs 2.4 nM, IP20 5 µM, PKA (where present) 500 U/mL; UV-Vis, TEM
[4] = substrate/ATP, Biotinylated antiphosphoserine antibody/SA-AuNPs-HRP, ref [19]
[5] = substrate/ATP-S, AuNPs/MWNTs, ref [30]
[6] = substrate/ATP, Zr^4+-DNA-AuNPs network, ref [22]
[7] = substrate/ATP, Fe^3+/H2O2, ref [20]

Substance: CALRRASLGW
- Detection limit (PKA [1]; [4]): 1 mU/mL
- Linear range (PKA [1]; [4]): 1–10 mU/mL

Substance: CGGALRRASLG
- Linear range (PKA [1]; substrate/ATP, Phos-tag-biotin/avidin-HRP, ref [23]): 500–25,000 mU/mL

Substance: CLRRASIG
- Detection limit (PKA [1]; [5]): 90 mU/mL
- Linear range (PKA [1]; [5]): 100–1,000 mU/mL

Substance: CLRRASLG
- Detection limit (PKA [1]; [6]): 30 mU/mL
- Linear range (PKA [1]; [6]): 30–40,000 mU/mL

Substance: Fc-LRRASLG
- Detection limit (PKA [1]; substrate/ATP, bis(Zn^2+-dipicolylamine), ref [21]): 100 mU/mL

Substance: FcCH2CO-RTGRRNAIHD [Fc-peptide]
- DPV signal/peak, single component only (Fc-peptide alone or AuNPs alone) (PKA [2]): no DPV peak was observed

Substance: LRRASLG
- Detection limit (PKA [1]; substrate/biotin-ATP, SA-AuNPs, ref [27]): 10,000 mU/mL

Substance: LRRASLGGGGC
- Detection limit (PKA [1]; [7]): 100 mU/mL
- Linear range (PKA [1]; [7]): 100–50,000 mU/mL

Substance: RTGRRNAIHD
- effect on AuNPs aggregation / color change [3]: responsible for triggering the aggregation of AuNPs
